In ChEMBL document CHEMBL4665849, “Synthesis and biological evaluation of imidazoline derivatives as potential CNS and CVS agents” (Bioorg Med Chem Lett, 2020):
Active and inactive are the calls of the source. The rule behind the calls is not given here.

Tests used:
Mus musculus [1] = test: Hypotensive activity in mouse assessed as decrease in immediate blood pressure at 2.5 mg/kg; assay type: functional
Mus musculus [2] = test: Hypotensive activity in mouse assessed as decrease in delayed blood pressure at 2.5 mg/kg; assay type: functional
Mus musculus [3] = test: Hypotensive activity in mouse assessed as decrease in heart rate at 2.5 mg/kg; assay type: functional
Mus musculus [4] = test: Modulation of cardiovascular activity in mouse assessed as inhibition of norepinephrine induced pressure response at 2.5 mg/kg; assay type: functional, organism-based
Mus musculus [5] = test: Modulation of cardiovascular activity in mouse assessed as inhibition of carotid occlusion-induced pressure response at 2.5 mg/kg; assay type: functional, organism-based
[6] = Toxicity in mouse; assay type: organism-based; details: in vivo, read-out: ALD50
Mus musculus [7] = test: Analgesic activity in mouse assessed as maximum change in tail flick latency time at 10 mg/kg (reference value: 0.7 secs); assay type: functional
Mus musculus [8] = test: Antiaggressive activity in mouse assessed as reduction in foot shock induced fighting behavior by measuring fighting count at 10 mg/kg, ip (reference value: 6.6 to 24.3 counts); assay type: functional
Mus musculus [9] = test: Antidepressant activity in mouse assessed as total mean swimming time time at 5 mg/kg, ip (reference value: 2.08 to 3.12 min); assay type: functional
Mus musculus [10] = test: Modulation of cardiovascular activity in mouse assessed as potentiation of norepinephrine induced pressure response at 2.5 mg/kg; assay type: functional, organism-based
Mus musculus [11] = test: Analgesic activity in mouse assessed as time duration at which maximum change in tail flick latency occurs at 10 mg/kg (reference value: 60 mins); assay type: functional
Mus musculus [12] = species: Mus musculus; details: dose 10.0 mg/kg
Description: Modulation of cardiovascular activity in mouse assessed as inhibition of norepinephrine induced pressure response at 10 mg/kg

Mus musculus [13] = species: Mus musculus; details: dose 10.0 mg/kg; remark: listed apart in the source
Description: Modulation of cardiovascular activity in mouse assessed as inhibition of carotid occlusion-induced pressure response at 10 mg/kg

Mus musculus [14] = test: Antidepressant activity in mouse assessed as total mean swimming time at 15 mg/kg (reference value: 2.98 min); assay type: functional

SMILES	Activity (Mus musculus [1])	Activity (Mus musculus [2])	Activity (Mus musculus [3])	inhibition (Mus musculus [4])	inhibition (Mus musculus [5])	LD50 [6]	Time (Mus musculus [7])	Activity (Mus musculus [8])	Time (Mus musculus [9])	Activity (Mus musculus [10])	Time (Mus musculus [11])	inhibition (Mus musculus [12])	inhibition (Mus musculus [13])	Time (Mus musculus [14])
O=C1/C(=C/c2ccccc2)N=C(CCN2CCOCC2)N1c1ccc(O)cc1	35 mmHg	15 mmHg	15 bpm	inactive	Active	> 500 mg/kg	4 s	21.6 Counts	0.84 min	inactive	60 min	–	–	–
CC1=N/C(=C\c2ccc(N(C)C)cc2)C(=O)N1c1ccc(OCC2CO2)cc1 (configuration not stated)	60 mmHg	28 mmHg	24 bpm	Active	Active	> 500 mg/kg	3.8 s	10.3 Counts	1.31 min	–	30 min	–	–	–
O=C1/C(=C/c2ccoc2)N=C(CCN2CCOCC2)N1c1ccc(O)cc1	35 mmHg	20 mmHg	18 bpm	–	Active	> 1000 mg/kg	5.2 s	6.6 Counts	1.3 min	Active	30 min	–	–	–
CC1=N/C(=C\c2ccoc2)C(=O)N1c1ccc(OCC(O)CNc2ccc(Cl)cc2)cc1 (configuration not stated)	25 mmHg	20 mmHg	27 bpm	inactive	inactive	> 500 mg/kg	6.9 s	10.6 Counts	2.83 min	inactive	30 min	–	–	–
Clc1cccc(Cl)c1NC1=NCCN1	–	–	–	–	–	–	–	–	–	–	–	Active	Active	–
CC1=N/C(=C\c2ccccc2)C(=O)N1c1ccc(OCC2CO2)cc1 (configuration not stated)	25 mmHg	45 mmHg	21 bpm	–	Active	> 500 mg/kg	8.5 s	6.3 Counts	1.68 min	Active	60 min	–	–	–
CC1=N/C(=C\c2ccoc2)C(=O)N1c1ccc(O)cc1	20 mmHg	20 mmHg	18 bpm	inactive	inactive	> 500 mg/kg	1.3 s	4.6 Counts	2.52 min	inactive	60 min	–	–	–
CC1=N/C(=C\c2ccc(N(C)C)cc2)C(=O)N1c1ccc(OCC(O)CNc2ccc(Cl)cc2)cc1 (configuration not stated)	15 mmHg	30 mmHg	21 bpm	–	Active	> 500 mg/kg	0.9 s	4.8 Counts	0.84 min	Active	30 min	–	–	–
CN(C)c1ccc(/C=C2\N=C(CCN3CCOCC3)N(c3ccc(O)cc3)C2=O)cc1	15 mmHg	37 mmHg	30 bpm	–	Active	> 500 mg/kg	2.6 s	4.5 Counts	0.5 min	Active	60 min	–	–	–
CC1=N/C(=C\c2ccccc2)C(=O)N1c1ccc(OCC(O)CNc2ccc(Cl)cc2)cc1 (configuration not stated)	50 mmHg	17 mmHg	6 bpm	–	Active	> 200 mg/kg	4.5 s	11.3 Counts	1.6 min	Active	60 min	–	–	–
CC1=N/C(=C\c2ccc(N(C)C)cc2)C(=O)O1	inactive	15 mmHg	inactive	–	Active	> 500 mg/kg	1.8 s	7.3 Counts	1.5 min	Active	60 min	–	–	–
CC1=N/C(=C\c2ccoc2)C(=O)O1	inactive	inactive	inactive	inactive	inactive	> 500 mg/kg	8.8 s	6 Counts	2.64 min	inactive	15 min	–	–	–
CC1=N/C(=C\c2ccoc2)C(=O)N1c1ccc(OCC2CO2)cc1 (configuration not stated)	30 mmHg	20 mmHg	6 bpm	–	Active	> 1000 mg/kg	6.4 s	5 Counts	1.14 min	Active	60 min	–	–	–
CC1=N/C(=C\c2ccc(N(C)C)cc2)C(=O)N1c1ccc(O)cc1	25 mmHg	50 mmHg	27 bpm	–	Active	> 500 mg/kg	0.1 s	1.6 Counts	0.42 min	Active	30 min	–	–	–
CN(C)CCCN1c2ccccc2CCc2ccccc21 [IMIPRAMINE]	–	–	–	–	–	–	–	–	–	–	–	–	–	2.33 min
CC1=N/C(=C\c2ccccc2)C(=O)N1c1ccc(O)cc1	15 mmHg	70 mmHg	12 bpm	Active	Active	> 200 mg/kg	6.4 s	8.6 Counts	2.74 min	–	60 min	–	–	–
CC1=N/C(=C\c2ccccc2)C(=O)O1	25 mmHg	40 mmHg	36 bpm	–	Active	> 500 mg/kg	1.3 s	6 Counts	1.72 min	Active	60 min	–	–	–
